Our source for the IC50 values is US7655651B2, “Amide derivatives of 3-phenyl-dihydropyrimido[4,5-d]pyrimidinones, their manufacture and use as pharmaceutical agents” (Hoffmann-La Roche Inc., priority 2004, dated 2010).

Structures are written as SMILES.

For the experiment, the target named is T1, Src (p60^c-src, partially purified) (Homo sapiens, UniProt P12931).
T1 construct: purchased UBI, Upstate Biotech, Inc
T1 sequence (P12931 whole entry): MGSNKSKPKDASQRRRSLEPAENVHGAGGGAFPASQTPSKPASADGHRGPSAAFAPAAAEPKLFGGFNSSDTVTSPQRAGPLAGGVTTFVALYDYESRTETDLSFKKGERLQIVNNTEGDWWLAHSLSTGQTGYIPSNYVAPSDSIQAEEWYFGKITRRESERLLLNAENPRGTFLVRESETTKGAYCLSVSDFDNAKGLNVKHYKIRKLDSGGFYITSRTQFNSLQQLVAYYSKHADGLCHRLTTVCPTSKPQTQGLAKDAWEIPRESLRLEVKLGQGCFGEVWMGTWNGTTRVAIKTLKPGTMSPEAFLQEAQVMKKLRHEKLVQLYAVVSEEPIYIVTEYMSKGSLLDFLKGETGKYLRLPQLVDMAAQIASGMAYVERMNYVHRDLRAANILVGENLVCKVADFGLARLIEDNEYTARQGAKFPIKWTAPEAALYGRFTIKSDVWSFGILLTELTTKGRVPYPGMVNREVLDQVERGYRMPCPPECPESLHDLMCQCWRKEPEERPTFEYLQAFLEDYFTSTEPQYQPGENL
Briefly: SRC-Inhibitor-Assay (time-resolved fluorescence kinase assay). The experiment is classed as biochemical. To be noted: ATP 5 μM; peptide 10 μM; enzyme 2.5 U/ml; enzyme pre-incubated with inhibitor 15 min at 15° C. The procedure:
The activity of the compounds according to this invention as inhibitors for the src-family tyrosine kinases was shown by using the following assay.
SRC-Inhibitor-Assay Parameters:
• whereby both peptides were synthesized by an optimized solid phase peptide synthesis protocol (Merrifield, Fed. Proc. Fed. Amer. Soc. Exp. Biol. 21 (1962) 412) on a Zinsser SMP350 peptide synthesizer. Shortly, the peptide was assembled on […] (22.8 μmol scale) of a Rink-Linker modified polystyrene solid phase by repeatedly conjugating an twenty fold excess of amino acids each protected by temporary piperidine labile Fmoc- and permanent acid labile tert-Bu-, BOC— and O-tert-Bu-groups depending on the side chain function. The substrate sequence AEEEIYGEFEAKKKK was N-terminal additionally mounted with the spacer amino acids Aminocaprylic acid and Glycin. After cleavage of the N-terminal temporary protecting group the still attached and protected peptide was labeled with a 1.5 fold amount of LightCycler-Red 640-N-hydroxy succinimide ester (purchased from Roche Diagnostics GmbH) and triethylamine. After 3 hrs. the resin washed with Dimethylformamide and Isopropanol until the eluates of the blue resin got colourless. […] The substrate was finally isolated by a preparative reverse phase HPLC purification. The purification yielded 12.2 mg RP-HPLC single peak pure blue material (lyophilisate). The identity was proven by MALDI mass spectroscopy [2720.0]. • Enzymes: Upstate Src (p60^c-src, partially purified) were purchased from UBI, Upstate Biotech, Inc.
Time-resolved Fluorescence Assay: Reader: Perkin Elmer, Wallac Viktor 1420-040 multilabel counter; Liquid handling system: Beckman Coulter, Biomek 2000.
ATP, Tween™ 20, 4-(2-hydroxyethyl)-1-piperazineethanesulfonic acid (HEPES) were purchased from Roche Molecular Biochemicals, MgCl2 and MnCl2 were purchased from Merck Eurolab, Tris(2-carboxyethyl)phosphine hydrochloride (TCEP) was purchased from Pierce, 384 Well low volume fluorescence plates was purchased from Falcon.
At first the enzyme is pre-incubated for 15 min. at 15° C. in aqueous solution with corresponding amounts of inhibitors according to this invention. Then the phosphorylation reaction is started by adding a reaction mixture, containing ATP, Peptide and PT66, and subsequent shaking. The proceeding of this reaction is immediately monitored using time resolved fluorescence spectroscopy in a suitable well plate reader.
The IC50-values can be obtained from the reaction rates by using a non-linear curve fit (XLfit software (ID Business Solution Ltd., Guilford, Surrey, UK))
With `CCN(CC)CCOc1ccc(Nc2ncc3c(n2)N(C)C(=O)N(c2cc(NC(=O)c4ccccc4)ccc2Cl)C3)cc1` [Example 2-6, N-(4-Chloro-3-{7-[4-(2-diethylamino-ethoxy)-phenylamino]-1-methyl-2-oxo-1,4-dihydro-2H-pyrimido[4,5-d]pyrimidin-3-yl}-phenyl)-benzamide], the IC50 (in general, the concentration at which inhibition is half-maximal) came out at 0.0024 µM. For the compound `CCN(CC)CCOc1ccc(Nc2ncc3c(n2)N(C)C(=O)N(c2cc(NC(=O)CCc4ccc(O)cc4)ccc2Cl)C3)cc1` [Example 2-12, N-(4-Chloro-3-{7-[4-(2-diethylamino-ethoxy)-phenylamino]-1-methyl-2-oxo-1,4-dihydro-2H-pyrimido[4,5-d]pyrimidin-3-yl}-phenyl)-3-(4-hydroxy-phenyl)-propionamide; compound with acetic acid], the IC50 was in the range of 0.001 to 0.015 µM. The figure for `CCN(CC)CCOc1ccc(Nc2ncc3c(n2)N(C)C(=O)N(c2cc(NC(=O)C4CCCCCC4)ccc2Cl)C3)cc1` [Example 2-2, Cycloheptanecarboxylic acid (4-chloro-3-{7-[4-(2-diethylamino-ethoxy)-phenylamino]-1-methyl-2-oxo-1,4-dihydro-2H-pyrimido[4,5-d]pyrimidin-3-yl}-phenyl)-amide; compound with acetic acid] is 0.015 to 0.05 µM; for `CCN(CC)CCOc1ccc(Nc2ncc3c(n2)N(C)C(=O)N(c2cc(NC(=O)c4ccc(OC)cc4)ccc2Cl)C3)cc1` [Example 2-7, N-(4-Chloro-3-{7-[4-(2-diethylamino-ethoxy)-phenylamino]-1-methyl-2-oxo-1,4-dihydro-2H-pyrimido[4,5-d]pyrimidin-3-yl}-phenyl)-4-methoxy-benzamide] it is 0.001 to 0.015 µM; for `CCN(CC)CCOc1ccc(Nc2ncc3c(n2)N(C)C(=O)N(c2cc(NC(=O)C=Cc4ccccc4)ccc2Cl)C3)cc1` [Example 2-16, N-(4-Chloro-3-{7-[4-(2-diethylamino-ethoxy)-phenylamino]-1-methyl-2-oxo-1,4-dihydro-2H-pyrimido[4,5-d]pyrimidin-3-yl}-phenyl)-3-phenyl-acrylamide] it is 0.001 to 0.015 µM. In turn, `CCN(CC)CCOc1ccc(Nc2ncc3c(n2)N(C)C(=O)N(c2cc(NC(=O)c4ccc(-c5ccccc5)cc4)ccc2Cl)C3)cc1` [Example 1, Biphenyl-4-carboxylic acid (4-chloro-3-{7-[4-(2-diethylamino-ethoxy)-phenylamino]-1-methyl-2-oxo-1,4-dihydro-2H-pyrimido[4,5-d]pyrimidin-3-yl}-phenyl)-amide] yielded a half-maximal inhibitory concentration (IC50) of 0.001 to 0.015 µM. The result for `CCN(CC)CCOc1ccc(Nc2ncc3c(n2)N(C)C(=O)N(c2cc(NC(=O)CCCc4ccccc4)ccc2Cl)C3)cc1` [Example 2-15, N-(4-Chloro-3-{7-[4-(2-diethylamino-ethoxy)-phenylamino]-1-methyl-2-oxo-1,4-dihydro-2H-pyrimido[4,5-d]pyrimidin-3-yl}-phenyl)-4-phenyl-butyramide] reads 0.015 to 0.05 µM; that for `CCN(CC)CCOc1ccc(Nc2ncc3c(n2)N(C)C(=O)N(c2cc(NC(=O)CCc4cccnc4)ccc2Cl)C3)cc1` [Example 2-23, N-(4-Chloro-3-{7-[4-(2-diethylamino-ethoxy)-phenylamino]-1-methyl-2-oxo-1,4-dihydro-2H-pyrimido[4,5-d]pyrimidin-3-yl}-phenyl)-3-pyridin-3-yl-propionamide; compound with acetic acid], 0.001 to 0.015 µM; that for `CCN(CC)CCOc1ccc(Nc2ncc3c(n2)N(C)C(=O)N(c2cc(NC(=O)c4ccc(C#N)cc4)ccc2Cl)C3)cc1` [Example 2-8, N-(4-Chloro-3-{7-[4-(2-diethylamino-ethoxy)-phenylamino]-1-methyl-2-oxo-1,4-dihydro-2H-pyrimido[4,5-d]pyrimidin-3-yl}-phenyl)-4-cyano-benzamide], 0.001 µM. The result for `CCN(CC)CCOc1ccc(Nc2ncc3c(n2)N(C)C(=O)N(c2cc(NC(=O)Cc4cccnc4)ccc2Cl)C3)cc1` [Example 2-21, N-(4-Chloro-3-{7-[4-(2-diethylamino-ethoxy)-phenylamino]-1-methyl-2-oxo-1,4-dihydro-2H-pyrimido[4,5-d]pyrimidin-3-yl}-phenyl)-2-pyridin-3-yl-acetamide] reads 0.015 to 0.05 µM.
